Data as given in ChEMBL document CHEMBL5608163, “Structure modification of anoplin for fighting resistant bacteria” (Eur J Med Chem, 2024).
In brackets after ≈: the same amount, converted by molar mass. Square brackets hold non-standard residues; d marks the D form. Peptide text beside a SMILES is read from it. * marks the point of attachment. Pentadecanoyl = CCCCCCCCCCCCCCC(=O)*; NMeI = CC[C@H](C)[C@H](NC)C(=O)O; Tridecanoyl = CCCCCCCCCCCCC(=O)*; NMeL = CN[C@@H](CC(C)C)C(=O)O; Undecanoyl = CCCCCCCCCCC(=O)*; Nonanoyl = CCCCCCCCC(=O)*

Tests used:
[1] = tested on: Staphylococcus aureus; experiment: Antibacterial activity against Staphylococcus aureus ATCC 25923 assessed as reduction in bacterial growth incubated for 18 to 24 hrs by broth microdilution method; assay type: functional; settings: time 18-24 hrs
[2] = tested on: Escherichia coli; experiment: Antibacterial activity against Escherichia coli ATCC 25922 assessed as reduction in bacterial growth by broth microdilution method; assay type: functional
[3] = Hemolytic activity in human RBC; assay type: toxicity, cell-based, Erythrocyte; settings: red blood cells
[4] = tested on: Klebsiella pneumoniae; experiment: Antibacterial activity against Klebsiella pneumoniae ATCC 700603 assessed as reduction in bacterial cell growth measured for 18 hrs by Mueller-Hinton broth based two-fold serial dilution method; assay type: functional
[5] = tested on: Bacillus subtilis; experiment: Antibacterial activity against Bacillus subtilis ATCC 23857 assessed as reduction in bacterial cell growth measured for 18 hrs by Mueller-Hinton broth based two-fold serial dilution method; assay type: functional
[6] = tested on: Staphylococcus aureus; experiment: Antibacterial activity against Staphylococcus aureus ATCC 25923 assessed as reduction in bacterial cell growth measured for 18 hrs by Mueller-Hinton broth based two-fold serial dilution method; assay type: functional
[7] = Hemolytic activity in mouse Red blood cells incubated for 1 hr by microplate reader assay; assay type: toxicity, cell-based, Erythrocyte; settings: red blood cells
[8] = tested on: Pseudomonas aeruginosa; experiment: Antibacterial activity against Pseudomonas aeruginosa ATCC 27853 assessed as reduction in bacterial cell growth measured for 18 hrs by Mueller-Hinton broth based two-fold serial dilution method; assay type: functional
[9] = tested on: Escherichia coli; experiment: Antibacterial activity against Escherichia coli ATCC 25922 assessed as reduction in bacterial cell growth measured for 18 hrs by Mueller-Hinton broth based two-fold serial dilution method; assay type: functional

Compound | MIC [1] | MIC [2] | MIC [4] | MIC [5] | MIC [6] | MIC [8] | MIC [9] | HC50 [3] | HC50 at 1 h [7]
CC[C@H](C)[C@H](NC(=O)[C@H](CCCNC(=N)N)NC(=O)[C@H](CCCCN)NC(=O)[C@H](CC(C)C)NC(=O)[C@H](C)NC(=O)CN)C(=O)N[C@@H](CCCCN)C(=O)N[C@H](C(=O)N[C@@H](CC(C)C)C(=O)N[C@@H](CC(C)C)C(N)=O)[C@@H](C)O (H-GALKRIKTLL-NH2) | > 38.7 µM | > 38.7 µM | – | – | – | – | – | – | –
CC[C@H](C)[C@H](NC(=O)[C@H](C)NC(=O)[C@H](CCCCN)NC(=O)[C@H](CC(C)C)NC(=O)[C@H](CC(C)C)NC(=O)CN)C(=O)N[C@@H](CCCCN)C(=O)N[C@H](C(=O)N[C@@H](CC(C)C)C(=O)N[C@@H](CC(C)C)C(N)=O)[C@@H](C)O (H-GLLKAIKTLL-NH2) | 9.4 µM (≈ 10 µg/mL) | 4.7 µM (≈ 5.02 µg/mL) | – | – | – | – | – | 151 µM | –
CCCCCCCCC(=O)NCC(=O)N[C@@H](CC(C)C)C(=O)N(C)[C@@H](CC(C)C)C(=O)N[C@@H](CCCCN)C(=O)N[C@@H](CCCNC(=N)N)C(=O)N(C)[C@H](C(=O)N[C@@H](CCCCN)C(=O)N[C@H](C(=O)N[C@@H](CC(C)C)C(=O)N[C@@H](CC(C)C)C(N)=O)[C@@H](C)O)[C@@H](C)CC (Nonanoyl-GL[NMeL]KR[NMeI]KTLL-NH2) | – | – | > 128 µM | 8 µM (≈ 10.6 µg/mL) | 128 µM (≈ 169 µg/mL) | 32 µM (≈ 42.3 µg/mL) | 128 µM (≈ 169 µg/mL) | – | > 256 µM
CC[C@H](C)[C@H](NC(=O)[C@H](CCCNC(=N)N)NC(=O)[C@H](CCCCN)NC(=O)[C@H](CC(C)C)NC(=O)[C@H](CC(C)C)NC(=O)CN)C(=O)N[C@@H](CCCCN)C(=O)N[C@@H](C)C(=O)N[C@@H](CC(C)C)C(=O)N[C@@H](CC(C)C)C(N)=O (H-GLLKRIKALL-NH2) | 7.1 µM (≈ 7.98 µg/mL) | 14.3 µM (≈ 16.1 µg/mL) | – | – | – | – | – | 86.5 µM | –

Further lines, with some results ahead:

MIC [1] | MIC [2] | MIC [4] | MIC [5] | MIC [6] | MIC [8] | MIC [9] | Compound | HC50 [3] | HC50 at 1 h [7]
– | – | 32 µM (≈ 44.1 µg/mL) | 4 µM (≈ 5.51 µg/mL) | 4 µM (≈ 5.51 µg/mL) | 8 µM (≈ 11 µg/mL) | 8 µM (≈ 11 µg/mL) | CCCCCCCCCCCCC(=O)NCC(=O)N[C@@H](CC(C)C)C(=O)N(C)[C@@H](CC(C)C)C(=O)N[C@@H](CCCCN)C(=O)N[C@@H](CCCNC(=N)N)C(=O)N(C)[C@H](C(=O)N[C@@H](CCCCN)C(=O)N[C@H](C(=O)N[C@@H](CC(C)C)C(=O)N[C@@H](CC(C)C)C(N)=O)[C@@H](C)O)[C@@H](C)CC (Tridecanoyl-GL[NMeL]KR[NMeI]KTLL-NH2) | – | 64 µM
– | – | 64 µM (≈ 86.4 µg/mL) | 4 µM (≈ 5.4 µg/mL) | 16 µM (≈ 21.6 µg/mL) | 8 µM (≈ 10.8 µg/mL) | 16 µM (≈ 21.6 µg/mL) | CCCCCCCCCCC(=O)NCC(=O)N[C@@H](CC(C)C)C(=O)N(C)[C@@H](CC(C)C)C(=O)N[C@@H](CCCCN)C(=O)N[C@@H](CCCNC(=N)N)C(=O)N(C)[C@H](C(=O)N[C@@H](CCCCN)C(=O)N[C@H](C(=O)N[C@@H](CC(C)C)C(=O)N[C@@H](CC(C)C)C(N)=O)[C@@H](C)O)[C@@H](C)CC (Undecanoyl-GL[NMeL]KR[NMeI]KTLL-NH2) | – | > 256 µM
– | – | 16 µM (≈ 22.5 µg/mL) | 4 µM (≈ 5.62 µg/mL) | 8 µM (≈ 11.2 µg/mL) | 16 µM (≈ 22.5 µg/mL) | 16 µM (≈ 22.5 µg/mL) | CCCCCCCCCCCCCCC(=O)NCC(=O)N[C@@H](CC(C)C)C(=O)N(C)[C@@H](CC(C)C)C(=O)N[C@@H](CCCCN)C(=O)N[C@@H](CCCNC(=N)N)C(=O)N(C)[C@H](C(=O)N[C@@H](CCCCN)C(=O)N[C@H](C(=O)N[C@@H](CC(C)C)C(=O)N[C@@H](CC(C)C)C(N)=O)[C@@H](C)O)[C@@H](C)CC (Pentadecanoyl-GL[NMeL]KR[NMeI]KTLL-NH2) | – | 64 µM
> 18 µM | > 18 µM | – | – | – | – | – | CC[C@H](C)[C@H](NC(=O)[C@H](CCCNC(=N)N)NC(=O)[C@H](CCCCN)NC(=O)[C@H](CC(C)C)NC(=O)[C@H](CC(C)C)NC(=O)[C@H](C)N)C(=O)N[C@@H](CCCCN)C(=O)N[C@H](C(=O)N[C@@H](CC(C)C)C(=O)N[C@@H](CC(C)C)C(N)=O)[C@@H](C)O (H-ALLKRIKTLL-NH2) | – | –
